Measured values as given in US20250170111A1, “PYRIDINE BASED CHALCONE ANALOGS AS THERAPEUTIC AGENTS AND USE THEREOF” (QATAR UNIVERSITY, priority 2023, published 2025).
Where two headings read alike, the source gives them in different places.

Experiments:
PC3 and DU145 [1] = experiment: Soft agar colony formation assay, PC3 and DU145 (stated for both); assay type: cell-based, human; conditions: 5 and 10 μM, 14 days, both cell lines
Description: (§1) Anchorage-independent growth, a characteristic of transformed cells that correlate with in vivo tumorigenic potential, was assessed by soft agar assay. First, a 2% noble agar (Sigma-Aldrich) stock solution was prepared in deionized and autoclaved water. […] After 14 days, the average number of colonies in each well was counted manually under the microscope and confirmed by ImageJ; only colonies with an area larger than […] were counted to avoid the inclusion of non-proliferating dead cells. Besides, the size of colonies in each treatment condition was measured by ImageJ from at least six random fields per well.

PC3 [2] = experiment: Annexin V / 7-AAD apoptosis assay, PC3; assay type: cell-based, human; conditions: 48 hours
Description: (§2) Cellular apoptosis was assessed by PE Annexin V apoptosis Detection Kit (BDPharmingen, USA) as per the manufacturer's protocol. Briefly, cells were seeded in 100 mm Petri dishes at a density of 1.5 million cells/dish and incubated overnight. […] Adherent and floating cells were then harvested by trypsin, washed twice by PBS, resuspended in binding buffer and stained with Phycoerythrin (PE) conjugated Annexin-V, 7-AAD or both stains for 15 minutes. After staining, samples were analyzed by BD FACSAria™ II Flow Cytometer and FlowJo software. First, the cell population, excluding debris, was gated with forward scatter (FSC-A) and side scatter (SSC-A). Then, doublets were excluded using FSC-height and FSC-width plots. […] Quad Gates were used to calculate the percentage of viable cells (annexin V low, 7-AAD low), early pro-apoptotic cells (annexin V high, 7-AAD low) and late apoptosis/dead cells (annexin V high, 7-AAD high).

Bax, Bcl-2 = experiment: Western blot of apoptosis-related proteins in PC3 and DU145; conditions: PC3 and DU145, 48 hours of treatment
DU145 [3] = experiment: Soft agar colony formation assay, DU145; assay type: cell-based, human; set-up: average size of detected colonies, DU145: unit not given here; conditions: 10 μM
Description: as §1

PC3 [4] = experiment: Alamar Blue cell viability assay, PC3
DU145 [5] = experiment: Alamar Blue cell viability assay, DU145; conditions: Homo sapiens, DU-145, 48 h
PC3 [6] = experiment: Soft agar colony formation assay, PC3; assay type: cell-based, human; set-up: average size of detected colonies, PC3: unit not given here; conditions: 10 μM
Description: as §1

CAM of chicken embryos = experiment: Chorioallantoic membrane (CAM) angiogenesis assay; assay type: in vivo; conditions: in ovo, 48 hours post-treatment, vs control
Description: Fertilized white leghorn chicken eggs were obtained from Arab […] for Poultry Production, Doha, Qatar. Eggs were incubated in a rotary humidified MultiQuip Incubator at 37° C. with 60% humidity. Ethics approval was obtained from Institutional Animal Care & Use Committee and Institutional Bio-safety committee at Qatar University. […] Briefly, eggshells were disinfected with ethanol and a small opening was made in the shell over the air sac. Next, 200 μl of 1×PBS was added and the shell membrane was carefully removed. […] Subsequently, opened windows were sealed and the eggs were returned to a stationary incubator (FIG. 11). The effect of compounds on angiogenesis was monitored for 48 hours post-treatment and microscopic images of exposed (under coverslip) and unexposed area in each embryo were captured at equivalent magnification. Images were then analyzed using AngioTool software using the following parameters: vessel diameter thresholds at, vessel thickness at 7 and 10, removed small particles at 60, and filled holes at 183. The difference in blood vessel formation between treated and untreated embryos was assessed based on average vessel length, vessel percentage area and the total number of blood vessel junctions. […]

E-cadherin = experiment: Western blot of EMT-related biomarkers in DU145; conditions: DU145 cells
PC3 and DU145 [7] = experiment: Morphological examination, PC3 and DU145; assay type: cell-based, human; conditions: 5 μM
Description: Cells were seeded in 6 wells plate at a density of 150,000-200,000 cells/well and were incubated overnight. Then, cells were treated with the synthesized compounds at 5-10 μM concentration for 48 hours. Morphological changes were monitored using a DMi8 inverted microscope (Leica, Germany) and images were captured with a Leica MC170 HD camera.
The induction of apoptosis in cancer cells has been widely considered an important criterion in developing anticancer drugs. To confirm whether the synthesized compounds could reduce cell viability and induce apoptosis in PC3 and DU145, prostate cancer cells were treated with compounds 1-16 at 10 μM concentrations for 48 hours. Cells were examined for the formation of apoptotic bodies or death by phase-contrast microscopy (FIGS. 21 and 22). More importantly, cells were monitored for characteristic changes in cell morphology as they can provide insight into cell differentiation, invasiveness, survival, and genetic alterations.

[8] = test system: primary human dental bulb cells (ND); experiment: Alamar Blue cell viability, normal primary dental cells; conditions: 48 hours, Mean ± SEM
PC3 and DU145 [9] = experiment: Wound healing assay, PC3 and DU145; conditions: both cell lines; significant from 5 μM in PC3
JNK1/2/3, ERK1/2, Akt = experiment: Western blot of JNK, ERK and AKT-related biomarkers in PC3; conditions: PC3 cell line
PC3 and DU145 [10] = experiment: Alamar Blue cell viability, AR-negative PCa cell lines (stated for both); conditions: Homo sapiens, DU-145, read-out: IC50 against PC3 and DU145 cell lines
DU145 [11] = experiment: Annexin V / 7-AAD apoptosis assay, DU145; assay type: cell-based, human; conditions: 48 hours
Description: as §2

DU145 [12] = experiment: Cell cycle analysis (PI flow cytometry), DU145; assay type: cell-based, human; conditions: DU145, 48 hours; not statistically significant (P>0.05)
Description: Cells were seeded in 100 mm Petri dishes at a density of 1.5 million cells/dish and incubated in RPMI supplemented with 10% FBS overnight at 37° C. Complete culture media was then removed, and cells were starved in serum serum-free for 16 hours to synchronize cells at the G0/G1 phase of the cell cycle. Subsequently, cells were treated with the compounds 13, 15, and 16 or docetaxel for 48 hours. After treatment, floating and adherent cells were collected, washed with ice-cold PBS and centrifuged at 500 g for 10 minutes at 4° C. Next, cells were fixed with ice-cold 70% ethanol added drop wisely while vertexing and stored at −20° C. for at least 24 hours. On the day of analysis, cells were pelleted (centrifuged at 800 g for 10 minutes at 4° C.), washed twice with ice-cold PBS and counted. Around one million cells of each sample were resuspended in 500 μl of FxCycle PI/RNase Staining Solution® (Thermo Fisher Scientific, USA) supplemented with 200 μg/ml RNase and incubated for 50 minutes at 37° C. in a shaking water bath, protected from light. Following incubation, cells were immediately analyzed by BD FACSAria™ II Flow Cytometer, at least 50,000 events were acquired for each sample. The proportion of cells in each cell cycle phase: […]

[13] = 14 days, in comparison to control

COc1cccc(C(=O)/C=C/c2cccc(-c3ccsc3)n2)c1 [Compound 16, (E)-1-(3-methoxyphenyl)-3-(6-(thiophen-3-yl)pyridin-2-yl) prop-2-en-1-one]
colony formation in soft agar (number and size) (PC3 and DU145 [1]): significant reduction in both the total number of colonies and average colony size
induction of apoptosis in PC3 (PC3 [2]): 34.7%
Bax/Bcl-2 expression (Bax, Bcl-2): significant increase in Bax/Bcl-2 ratio
reduction in number of colonies, DU145 (DU145 [3]; [13]): 84.9%
average size of detected colonies, DU145 (DU145 [3]; control 196.0): 18.7
reduction in cell viability of PC3 (PC3 [4]; 2.5 μM): 47.5%
IC50 (PC3 [4]; read-out: PC3 IC50, 48 hours, Mean ± SEM of three independent experiments): 4.32 ± 0.37 µM
IC50 (DU145 [5]; read-out: DU145 IC50): 5.2 ± 0.46 µM
IC50 (DU145 [5]; read-out: IC50 against DU145): 5.2 µM
cytotoxicity at 10 µM (DU145 [5]; read-out: reduction in cell viability of DU145): 81%
reduction in number of colonies, PC3 (PC3 [6]; [13]): 82.8%
average size of detected colonies, PC3 (PC3 [6]; control 583.2): 20.0
effect on angiogenesis of the CAM (CAM of chicken embryos): significant reduction in average vessel length, a total number of junctions, and vessel area
expression of E-cadherin (E-cadherin): significantly upregulate the expression of E-cadherin
effect on cell morphology (PC3 and DU145 [7]): increased cell detachment, the formation of apoptotic bodies, and cell shrinkage
ND LD50 [8]: 24.67 ± 1.03 µM
wound closure (PC3 and DU145 [9]): dose-dependent reduction in wound closure
expression of JNK1/2/3, ERK1/2, Akt and phosphorylated forms (JNK1/2/3, ERK1/2, Akt): significantly reduced the expression of JNK1/2/3 and phosphorylated ERK1/2
IC50 (PC3 and DU145 [10]): 4.32 to 6.47 µM
induction of apoptosis in DU145 (DU145 [11]): 47.8%
effect on cell cycle distribution (DU145 [12]): slight accumulation in G2/M and sub G1 phases
